# Assay results reported in patent US20190083407A1, “CRYSTALLIZATION METHOD AND BIOAVAILABILITY” (priority 2015, published 2019).
# Read-outs that look alike come from different tables or passages of the source.
# Assays:
# [1] = Rat PK study: plasma concentrations of zoledronic acid from pure zoledronic acid and complexes delivered IV, oral gavage and ID; assay type: in vivo, Sprague-Dawley Rats
# Procedure: These studies were conducted on rats and dogs as they are suitable animal models for zoledronic acid. This can be attributed to the fact that both animals have historically been used in the safety evaluation and PK screening studies and are recommended by appropriate regulatory agencies. […] Pure zoledronic acid and zoledronic acid complexes prepared by the methods in this invention were delivered to the rats and dogs through IV or oral routes. Additional tests included ID administration in rats and administration of enteric coated capsules in dogs. All compounds delivered were well tolerated by the animals with no adverse events or physical abnormalities noticed. […] USA. Some animals have surgical catheters (jugular vein and intraduodenum) were implanted to the animals prior to the studies. […] Surgical catheters (jugular vein) were implanted prior to the studies. […] Routes of Rat Dosing: Zoledronic acid and its complex formulations were administered through IV, oral and ID. […] The dose of each rat was calculated on a per rat basis (not on an average weight of all the rats in the lot). • ii. Oral gavage administration: solid suspensions were administered. The dose of each rat was calculated on a per rat basis (not on an average weight of all the rats in the lot). […] Duodenal cannula administration: solid suspensions were administered. The dose of each rat was calculated on a per rat basis (not on an average weight of all the rats in the lot). […] Groups: Two major groups of animals were selected for the study. • Group 1 consists of rat studies. […] Group I (IV Administration): Group Members, Designated IV Doses are Listed Below: [table] Group II (oral gavage): Group designations and oral doses are listed below: […] Group III (ID Administration): Group Designations and Oral Doses are Listed Below: [table] Rat blood sample collection, handling and analysis: […] Samples were thawed on the day of analysis and the amount of zoledronic acid in the samples was quantified by analyzed by LC/MS/MS method. Rat study: […]
# [2] = 72 hr dog study; cited from earlier work
# [3] = Aqueous solubility at room temperature; details: for Aqueous solubility, mMol/L (complex): as complex
# [4] = FDA Summary Basis of Approval; cited from earlier work
# [5] = cited from earlier work; for Mortality: solutions in capsules
compound,measurement,setting,value
"Zoledronic, nicotinamide, and water complex",Average plasma concentration of 3 rats,"[1]; ID 5 mg/kg zoledronic acid equivalent, PEG 400, 8 hour",0.00 ng/mL
same,Average plasma concentration of 3 rats,"[1]; ID 5 mg/kg zoledronic acid equivalent, PEG 400, 24 hour",0.00 ng/mL
same,Average plasma concentration of 3 rats,"[1]; PO 5 mg/kg zoledronic acid equivalent, PEG 400, 24 hour",0.00 ng/mL
O=P([O-])(O)C(O)(Cn1ccnc1)P(=O)([O-])O.[Na+].[Na+] [disodium zoledronate salt],AUC,[2],4073 ng·h/mL
NCCCCC(N)C(=O)O.O.O.O=P(O)(O)C(O)(Cn1ccnc1)P(=O)(O)O [ZA: L-Lysine dihydrate],"Aqueous solubility, Conc.",[3],8.22 mg/mL
same,"Aqueous solubility, mMol/L (complex)",[3],18.09 mmol/L
"O=P(O)(O)C(O)(Cn1ccnc1)P(=O)(O)O [Zoledronic acid, (1-hydroxy-2-imidazol-1-yl-1-phosphono-ethyl)phosphonic acid]",Oral bioavailability,[4],less than 1%
same,Mortality (dogs),[5]; 10 mg/kg administered directly to the stomach,⅓
same,Mortality (dogs),"[5]; 25 mg/kg, same formulation",3/3
same,AUC 0-24 hr,"[5]; dogs, 10 mg/kg administered directly to the stomach",1254 ng·h/mL
same,AUC 0-24,"[5]; dogs, 25 mg/kg, same formulation",7319 ng·h/mL
same,Mortality,"[5]; dogs, 10 mg/kg/day, one formulation",30%
same,Mortality,"[5]; dogs, another formulation, 25 mg/Kg",100%
same,AUC,[2],2217 ng·h/mL
NCCCCC(N)C(=O)O.O.O=P(O)(O)C(O)(Cn1ccnc1)P(=O)(O)O [ZA: DL-Lysine monohydrate],"Aqueous solubility, Conc.",[3],13.9 mg/mL
same,"Aqueous solubility, mMol/L (complex)",[3],31.86 mmol/L
